Reference: PMC2903571, “Sterol carrier protein-x gene and effects of sterol carrier protein-2 inhibitors on lipid uptake in Manduca sexta” (BMC Physiology, 2010)
pEC50, pKd: −log10 of the molar value. Where a name gives a salt, the structure may show the parent alone.

Key:
MsSCP-2 [1] = target: T1, MsSCP-2 (Manduca sexta, UniProt D8VD27); assay: NBD-cholesterol binding assay, recombinant MsSCP-2; details: NBD-cholesterol 1 μM, MsSCP-2 1 nM~10 μM, one site binding non-linear regression; read-out: binding affinity (Kd) of MsSCP-2 to NBD-cholesterol
Protocol: (§1) MsSCP-2 binding affinity for NBD-cholesterol, an analog of cholesterol, was determined using NBD-cholesterol binding assays. A 1 ml sample of 10 μM recombinant MsSCP-2 was diluted with 10 mM KHPO4 buffer (pH 7.4) to various concentrations (1 nM~10 μM). Twenty-five microliters of each concentration of MsSCP-2 solution and the control (without MsSCP-2) were thoroughly mixed with 25 μl of NBD-cholesterol solution (1 μM in KHPO4 buffer, pH 7.4) and allowed to equilibrate for 3 minutes to permit stable measurement of the fluorescence signal. NBD-cholesterol fluorescence was excited at 470 nm, and emission was recorded at 530 nm using a fluorescence microplate reader (Model: GeminiXPS, Molecular Devices). Data were fit using a simple, single binding site, non-linear regression model in GraphPad PRISM® software version 4.0 (GraphPad Software Inc., San Diego, CA) using the equation: [drawing 1]
(§2) Where, Kd is the binding affinity, X is the NBD-cholesterol concentration (μM), Y is the total binding (fluorescent intensity unit), and Bmax is the maximum specific binding to be fit. AeSCP-2 and GST were used as a positive control and a negative control, respectively. NBD-cholesterol binding assays for the controls were performed the same as described above for recombinant MsSCP-2.

GST = assay: NBD-cholesterol binding assay, GST (negative control); set-up: species or system bacterial; details: negative control protein
Protocol: as §1, §2

AeSCP-2 [2] = target: T2, AeSCP-2 (Aedes aegypti, UniProt Q86PR3); assay: NBD-cholesterol binding assay, AeSCP-2 (positive control); details: NBD-cholesterol 1 μM, one site binding non-linear regression; read-out: binding affinity (Kd) of AeSCP-2 to NBD-cholesterol
T2 sequence (Q86PR3 1-110): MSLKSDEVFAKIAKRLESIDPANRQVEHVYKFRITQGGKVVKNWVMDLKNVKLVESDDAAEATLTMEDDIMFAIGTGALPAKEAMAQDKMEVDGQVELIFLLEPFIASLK
Protocol: as §1, §2

[3] = set-up: method as in PMID 6833881; details: room temperature; cited from earlier work
[4] = set-up: method as in PMID 11566796; details: cited from earlier work
AeSCP-2 [5] = target: T2, AeSCP-2; assay: biochemical
Protocol: (§5) The inhibitory effect of SCPI on cholesterol binding to MsSCP-2 was measured using NBD-cholesterol competition assays. In a 50 μl reaction solution in each well of a 96-well plate purified recombinant MsSCP-2 (5 μM) was incubated with NBD-cholesterol (1.25 μM) in the presence of increased concentrations of a SCPI (0-12.5 μM) in 10 mM KHPO4 buffer (pH 7.4) for 5 min. The fluorescence intensity (excitation/emission = 470/530) of NBD-cholesterol was measured. The background control was NBD-cholesterol alone in 10 mM KHPO4 buffer (pH 7.4). A separate set of tests was performed using NBD-cholesterol with increasing concentrations of a SCPI to assess whether a SCPI interfered with NBD-cholesterol fluorescence. If a SCPI interfered with NBD-cholesterol fluorescence, the background control was NBD-cholesterol along with the SCPI. The net change in NBD-cholesterol fluorescence intensity was calculated by subtracting the fluorescence of the background control from the NBD-cholesterol-MsSCP-2 complex in the absence or presence of an inhibitor. The data were plotted with the relative NBD-cholesterol fluorescent intensity (bound NBD-cholesterol) as the y-axis and the molarities of the inhibitor as the x-axis. Bacterial GST protein and Aedes aegypti SCP-2 protein (AeSCP-2) were used as a negative control and a positive control for the assays, respectively.

MsSCP-2 [6] = target: T1, MsSCP-2; assay: biochemical
Protocol: as §5

Day 3 4th instar larvae = assay: Dietary uptake of NBD-cholesterol in larvae fed SCPIs; details: mean ± S.D.
Protocol: NBD-cholesterol and the SCPI were added into the diet and fed to Day 3 4th instar larvae (12 insects (4 insects/time)/group) as described for [^3H]-cholesterol. Total lipids were extracted from tissue samples as described for [^3H]-cholesterol. Dried lipids were re-dissolved in 50 μl methanol and the NBD fluorescent was measured (470/530 nm = excitation/emission). RFU = the relative fluorescent unit (sample FU - blank FU).
**Data were analyzed using two-way ANOVA.

[7] = tested on: M. sexta Day 3 4th instar larvae; assay: [3H]-cholesterol uptake (label/chase) in larvae fed SCPIs; format: in vivo, Manduca sexta; details: for suppression of cholesterol storage (stored [3H]-cholesterol) in the fat body: within 6 hours of treatment, versus controls; for accumulation of [3H]-cholesterol in the fat body versus controls: within 6 hours post feeding; for [3H]-cholesterol levels in the feces, higher than in the controls: within the 6 hour period; for amount of labeled cholesterol in the hemolymph: 2 to 6 hours post feeding; for hemolymph [3H]-cholesterol levels versus control: all post feeding time points; for total amount of [3H]-cholesterol in the midgut tissue versus controls: over the observed time period (2-6 h), two-way ANOVA
Protocol: (§3) Collected tissue samples were stored at -80°C.
(§4) Student t-test was used in cases where a pair of treatments was compared to determine the significance of the differences.

[8] = tested on: M. sexta Day 3 4th instar larvae; assay: [3H]-palmitic acid uptake (label/chase) in larvae fed SCPIs; format: in vivo, Manduca sexta; details: midgut tissue, 2-6 h post feeding
Protocol: as §3, §4

Manduca sexta GV1 cells = tested on: Manduca sexta GV1 cells; set-up: method as in PMID 15627652; details: 10 μM; cited from earlier work
Manduca sexta larvae = tested on: Manduca sexta larvae; set-up: method as in PMID 15627652; details: cited from earlier work

T1 sequence (D8VD27 entry or part of it): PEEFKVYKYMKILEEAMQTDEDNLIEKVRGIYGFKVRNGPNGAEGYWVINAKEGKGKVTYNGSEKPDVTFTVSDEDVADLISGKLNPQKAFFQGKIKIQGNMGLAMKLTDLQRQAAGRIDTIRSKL

| Compound | pEC50 (AeSCP-2 [5]) | pEC50 (MsSCP-2 [6]) | NBD-cholesterol, fat body, 2 hour (Day 3 4th instar larvae) [RFU/mg proteins] | NBD-cholesterol, fat body, 4 hour (Day 3 4th instar larvae) [RFU/mg proteins] | NBD-cholesterol, fat body, 6 hour (Day 3 4th instar larvae) [RFU/mg proteins] | NBD-cholesterol, hemolymph, 2 hour (Day 3 4th instar larvae) [RFU/mg proteins] | NBD-cholesterol, hemolymph, 4 hour (Day 3 4th instar larvae) [RFU/mg proteins] | NBD-cholesterol, hemolymph, 6 hour (Day 3 4th instar larvae) [RFU/mg proteins] | NBD-cholesterol, midgut, 2 hour (Day 3 4th instar larvae) [RFU/mg proteins] | NBD-cholesterol, midgut, 4 hour (Day 3 4th instar larvae) [RFU/mg proteins] | NBD-cholesterol, midgut, 6 hour (Day 3 4th instar larvae) [RFU/mg proteins] | amount of [3H]-cholesterol in the midgut [7] [DMP/mg protein] | suppression of cholesterol storage (stored [3H]-cholesterol) in the fat body ([7]; fat body) [%] | accumulation of [3H]-cholesterol in the fat body versus controls ([7]; fat body) | [3H]-cholesterol levels in the feces, higher than in the controls [7] [%] | amount of labeled cholesterol in the hemolymph ([7]; SCPI at LD50 dosage in diet) [DPM/mg protein] | hemolymph [3H]-cholesterol levels versus control [7] | total amount of [3H]-cholesterol in the midgut tissue versus controls ([7]; midgut) | [3H]-palmatic acid uptake/levels in the midgut [8] | suppression of cholesterol uptake (Manduca sexta GV1 cells) [%] | further results |
| --- | --- | --- | --- | --- | --- | --- | --- | --- | --- | --- | --- | --- | --- | --- | --- | --- | --- | --- | --- | --- | --- |
| C[C@H](CNc1ccc([N+](=O)[O-])c2nonc12)[C@H]1CC[C@H]2[C@@H]3CC=C4C[C@@H](O)CC[C@]4(C)[C@H]3CC[C@]12C [NBD-cholesterol, 22-(N-(7-nitrobenz-2-oxa-1,3-diazol-4-yl)amino)-23,24-bisnor-5-cholen-3β-ol] | – | – | – | – | – | – | – | – | – | – | – | – | – | – | – | – | – | – | – | – | pKd (MsSCP-2 [1]): 5.73; binding of GST to NBD-cholesterol (GST): little binding; pKd (AeSCP-2 [2]): 6.09 |
| CC(C)CCC[C@@H](C)[C@H]1CC[C@H]2[C@@H]3CC=C4C[C@@H](O)CC[C@]4(C)[C@H]3CC[C@]12C [Cholesterol, cholesterol] | – | – | – | – | – | – | – | – | – | – | – | – | – | – | – | – | – | – | – | – | solubility in water [3]: ~ 10 nM; flip-flop rate (t1/2) within the lipid bilayer [4]: 1 to 2 min |
| CC(=O)Nc1ccc(Nc2nc(-c3ccc(Cl)c(Cl)c3)cs2)cc1 [SCPI-1, N-4-{[4-(3,4-dichlorophenyl)-1,3-thiazol-2-yl]amino}phenyl)aetamide hydrobromide] | 6.05 | 5.66 | 8.01±2.84 | 4.18±1.06 | 3.75±1.10 | 8.62±3.62 | 7.04±1.37 | 5.63±1.62 | 22.77±3.02 | 22.61±4.57 | 17.78±6.43 | 555098.9 | 37 | significantly lower | 265.84 | 28087.6 | significantly lower | significantly lower | suppressed | 15 | total [3H]-cholesterol in the midgut tissue compared with the control group ([7]; midgut, 2 hour time point, SCPI at LD50 dosage in diet): slightly lower |
| COc1cccc(-n2sc3c(c2=S)-c2cc(Cl)ccc2NC3(C)C)c1 [SCPI-2, 8-chloro-2-(3-methoxyphenyl)-4,4-dimethyl-4,5-dihydroisothiazol[5,4-c]quinoline-1(2H)-thione] | 6.10 | 6.05 | 4.20±0.57 | 7.74±3.56 | 9.05±4.09 | 4.93±1.26 | 4.58±1.47 | 3.89±0.98 | 21.39±2.77 | 21.45±3.55 | 17.43±6.46 | 367836.9 | 69 | significantly lower | 369.02 | 29564.4 | significantly lower | significantly lower | suppressed | 22 | less stored [3H]-cholesterol in the fat body than for the SCPI-1-treatment ([7]; fat body, 6 hours post feeding): 56%; greater reduction in [3H]-cholesterol uptake/transport than the SCPI-1-treatment ([7]; midgut tissue): 46%; [3H]-cholesterol in the midgut tissue, % of the controls ([7]; midgut, 2 hour post feeding, SCPI at LD50 dosage in diet): 43.18%; lethality to Manduca larvae (Manduca sexta larvae): more lethal than SCPI-1 |
